Measurements: PMC10698726 (Molecular Pharmaceutics, 2023)
Where two headings read alike, the source gives them in different places.

How the values were obtained:
OCT2 = biological target: T1, OCT2 (Homo sapiens, UniProt O15244); experiment: Inhibition of model substrate uptake in OCT2-overexpressing HEK293 cells; conditions: for inhibition at 5 min, 20 μM: human, OCT2-overexpressing HEK293 cells
T1 sequence (O15244 1-555): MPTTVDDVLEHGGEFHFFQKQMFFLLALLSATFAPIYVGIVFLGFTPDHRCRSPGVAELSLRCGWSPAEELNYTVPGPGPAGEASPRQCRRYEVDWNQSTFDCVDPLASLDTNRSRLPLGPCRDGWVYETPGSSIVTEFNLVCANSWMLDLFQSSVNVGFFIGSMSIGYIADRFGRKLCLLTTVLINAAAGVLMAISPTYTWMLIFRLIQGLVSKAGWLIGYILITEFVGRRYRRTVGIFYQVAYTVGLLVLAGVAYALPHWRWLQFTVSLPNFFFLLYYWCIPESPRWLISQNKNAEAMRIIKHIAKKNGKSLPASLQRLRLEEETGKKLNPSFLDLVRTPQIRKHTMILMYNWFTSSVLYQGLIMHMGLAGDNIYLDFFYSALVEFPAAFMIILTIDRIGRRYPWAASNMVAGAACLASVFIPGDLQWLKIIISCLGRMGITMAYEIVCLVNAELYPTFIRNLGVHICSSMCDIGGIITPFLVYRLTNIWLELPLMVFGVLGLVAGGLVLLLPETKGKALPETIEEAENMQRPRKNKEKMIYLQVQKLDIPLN
Method: (§1) All experiments were carried out in transporter-overexpressing HEK293 cells. OCT1-, OCT2-, NET-, DAT-, and SERT-overexpressing cells as well as the empty-vector transfected control cell line were generated as described earlier,[26]−[28] whereas the OCT3-overexpressing HEK293 cells were generous gift of from Drs. Koepsell and Gorbulev (University of Würzburg, Germany). All cells were cultivated in Dulbecco’s modified Eagle’s medium (DMEM) supplemented with 10% (v/v) FCS, penicillin (100 U/mL), and streptomycin (100 μg/mL) and kept in culture for no longer than 30 passages.
(§2) As for the transport experiments, 300,000 HEK293 cells were plated in poly-D-lysine-coated 24-well plates 2 days ahead of the experiment. On every plate, two wells of empty vector (EV)-transfected cells were used as a control to account for the passive influx of the model substrate, and two wells of transporter-overexpressing cells were used to determine the noninhibited uptake of the model substrate. Cells were initially washed once with 37 °C HBSS+ and then incubated with 2 μM model substrate (0.2 μM for MPP^+ uptake by MATs) with and without 20 μM inhibitor for 5 min. For concentration-dependent inhibition experiments, the cells were incubated with increasing inhibitor concentrations. The incubation was terminated by aspiration of the buffer before cells were washed twice with ice-cold HBSS+ and lysed in 80% acetonitrile. Cell lysates were transferred into a black 96-well plate for the fluorescence measurement of ASP^+ or used for sample preparation for LC–MS/MS analysis. […] Fluorescence quantification was performed in technical duplicates.
(§3) Transporter-mediated net uptake was calculated as the difference between uptake in transporter-overexpressing cells and that in the empty-vector-transfected control. […] Vmax is the maximum transport velocity, while Km is defined as the substance concentration that is required to reach half of vmax. The ratio of vmax over Km is termed intrinsic clearance Clint. For inhibition experiments, the transport activity was calculated by using the following equation [drawing 1]
(§4) SubstrateEV refers to the passive uptake of model substrates into the control cells and substratenoninhibited is the uptake in transporter-overexpressing cells without the presence of any inhibitor. The percent inhibition values are then calculated as described in the following [drawing 2]
(§5) For concentration inhibition experiments, the transporter activity was plotted against the log10 of inhibitor concentrations, and the data were fitted by the following equation to determine IC50 values [drawing 3]
(§6) Y refers to the transporter activity, whereas Ymax is the maximum and Ymin is the minimal transporter activity. X is the log10 of inhibitor concentrations, IC50 is the half-maximal inhibitory concentration, and hill slope is the slope factor.

OCT3 = biological target: T2, OCT3 (Homo sapiens, UniProt O75751); experiment: Inhibition of model substrate uptake in OCT3-overexpressing HEK293 cells; type: cell-based; conditions: for IC50: read-out: IC50
T2 construct: expressed in transfected cells; host or cells: HEK293
T2 sequence (O75751 1-556): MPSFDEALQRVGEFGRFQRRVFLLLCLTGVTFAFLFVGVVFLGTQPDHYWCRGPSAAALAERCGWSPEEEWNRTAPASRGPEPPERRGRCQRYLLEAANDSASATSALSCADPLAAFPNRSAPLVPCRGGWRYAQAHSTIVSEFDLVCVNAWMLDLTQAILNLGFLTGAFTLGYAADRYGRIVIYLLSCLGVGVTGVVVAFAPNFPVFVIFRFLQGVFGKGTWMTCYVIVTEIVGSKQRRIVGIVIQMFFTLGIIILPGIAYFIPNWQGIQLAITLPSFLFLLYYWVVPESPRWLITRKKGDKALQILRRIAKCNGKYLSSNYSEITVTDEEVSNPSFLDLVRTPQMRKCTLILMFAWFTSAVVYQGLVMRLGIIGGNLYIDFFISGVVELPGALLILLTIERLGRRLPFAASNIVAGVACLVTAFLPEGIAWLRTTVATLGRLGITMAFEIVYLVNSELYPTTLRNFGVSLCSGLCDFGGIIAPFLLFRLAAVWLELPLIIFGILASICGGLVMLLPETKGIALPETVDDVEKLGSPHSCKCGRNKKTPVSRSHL
Method: as §1, §2, §3, §4, §5, §6

OCT1 = biological target: T3, OCT1 (Homo sapiens, UniProt O15245); experiment: Inhibition of model substrate uptake in OCT1-overexpressing HEK293 cells; type: cell-based; set-up: expressed in transfected cells; host or cells: HEK293
T3 sequence (O15245 1-554): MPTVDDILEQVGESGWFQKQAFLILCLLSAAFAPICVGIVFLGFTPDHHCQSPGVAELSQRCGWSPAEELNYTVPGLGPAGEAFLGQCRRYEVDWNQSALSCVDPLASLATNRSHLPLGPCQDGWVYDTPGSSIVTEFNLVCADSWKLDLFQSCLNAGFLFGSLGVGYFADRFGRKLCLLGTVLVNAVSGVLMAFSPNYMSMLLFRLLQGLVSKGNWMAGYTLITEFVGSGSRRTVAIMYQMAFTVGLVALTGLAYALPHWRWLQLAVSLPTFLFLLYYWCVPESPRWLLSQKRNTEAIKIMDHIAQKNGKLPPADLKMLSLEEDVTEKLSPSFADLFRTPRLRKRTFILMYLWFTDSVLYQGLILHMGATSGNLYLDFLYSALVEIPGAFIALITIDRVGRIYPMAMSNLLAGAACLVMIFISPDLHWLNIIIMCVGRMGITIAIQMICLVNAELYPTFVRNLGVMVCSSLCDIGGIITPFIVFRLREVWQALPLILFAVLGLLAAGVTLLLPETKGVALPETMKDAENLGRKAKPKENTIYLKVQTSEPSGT
Method: Koepsell and Gorbulev (University of Würzburg, Germany).
Fluorescence quantification was performed in technical duplicates.

[1] = pH 7.4, probe (S,S)-ethambutol (2 μM), (S,S)-Ethambutol inhibition [%], OCT2, 20 μM inhibitor, 2 μM (S,S)-ethambutol, 5 min
[2] = pH 7.4, probe ASP+ (2 μM), ASP+ inhibition [%], OCT2, 20 μM inhibitor, 2 μM ASP+, 5 min
[3] = pH 7.4, probe N-ethyllidocaine (2 μM), N-Ethyllidocaine inhibition [%], OCT2, 20 μM inhibitor, 2 μM N-ethyllidocaine, 5 min
[4] = HEK293, 5 min, read-out: (S)-Zolmitriptan inhibition [%], OCT3, 20 μM inhibitor, 2 μM (S)-zolmitriptan, 5 min
[5] = HEK293, 5 min, read-out: (S,S)-Ethambutol inhibition [%], OCT3, 20 μM inhibitor, 2 μM (S,S)-ethambutol, 5 min
[6] = HEK293, OCT3, 20 μM inhibitor, 2 μM ASP+, 5 min, read-out: ASP+ inhibition [%]
[7] = human, OCT1-overexpressing HEK293 cells, pH 7.4, probe (S,S)-ethambutol (2 μM), (S,S)-Ethambutol inhibition [%], OCT1, 20 μM inhibitor, 2 μM (S,S)-ethambutol, 5 min
[8] = human, OCT1-overexpressing HEK293 cells, pH 7.4, probe ASP+ (2 μM), OCT1, 20 μM inhibitor, 2 μM ASP+, 5 min, mean of three experiments, read-out: ASP+ inhibition [%]
[9] = human, OCT1-overexpressing HEK293 cells, pH 7.4, probe sumatriptan (2 μM), OCT1, 20 μM inhibitor, 2 μM sumatriptan, 5 min, read-out: Sumatriptan inhibition [%]

inhibition at 5 min, 20 μM (OCT2; [1]) [%]	inhibition at 5 min, 20 μM (OCT2; [2]) [%]	inhibition at 5 min, 20 μM (OCT2; [3]) [%]	inhibition at 20 µM (OCT3; [4]) [%]	inhibition at 20 µM (OCT3; [5]) [%]	inhibition at 20 µM (OCT3; [6]) [%]	inhibition at 5 min, 20 μM (OCT1; [7]) [%]	inhibition at 5 min, 20 μM (OCT1; [8]) [%]	inhibition at 5 min, 20 μM (OCT1; [9]) [%]	Compound	other results
									CCN(CC)CC#CCOC(=O)C(O)(c1ccccc1)C1CCCCC1 (stereo not shown) [Oxybutynine]	x-fold Stereoselectivity (OCT2; OCT2, ratio of the IC50 values of the two enantiomers of the drug): 1.6 fold; x-fold Stereoselectivity (OCT3; OCT3, ratio of the IC50 values of the two enantiomers of the drug): 1.6 fold; stereoselective inhibition of OCT3 (in words) (OCT3; ethambutol and zolmitriptan as substrates, 20 μM inhibitor): stereoselective inhibition; selectivity ratio at 5 min (OCT1; human, OCT1-overexpressing HEK293 cells, pH 7.4, OCT1, ratio of the IC50 values of the two enantiomers of the drug, read-out: x-fold Stereoselectivity): 1.2
13.4	76.9	33.7	32.1	46.2	10.3	54.8	15.5	38.2	C=C[C@H]1C[N@@]2CC[C@H]1C[C@H]2[C@H](O)c1ccnc2ccc(OC)cc12 [Quinine]	IC50 (OCT3; OCT3, Table S5, 2 μM ASP+ or ethambutol as model substrate, 5 min): 78.9 µM
5.5	5.4	-2.7	-3.9	5.6	2.7	6.2	5.2	-5.1	CNC[C@@H](O)c1cccc(O)c1 [(S)-Phenylephrine]	
									CC(C)NC[C@H](O)COc1cccc2ccccc12 [(S)-Propranolol]	(S,S)-Ethambutol inhibition [%] (OCT2; OCT2, 20 μM inhibitor, 2 μM (S,S)-ethambutol, 5 min): 28.4%; ASP+ inhibition [%] (OCT2; OCT2, 20 μM inhibitor, 2 μM ASP+, 5 min): 57.3%; N-Ethyllidocaine inhibition [%] (OCT2; OCT2, 20 μM inhibitor, 2 μM N-ethyllidocaine, 5 min): 32.4%; IC50 (OCT3; OCT3, Table 1): 69 µM; (S)-Zolmitriptan inhibition [%] (OCT3; OCT3, 20 μM inhibitor, 2 μM (S)-zolmitriptan, 5 min): 38.2%; (S,S)-Ethambutol inhibition [%] (OCT3; OCT3, 20 μM inhibitor, 2 μM (S,S)-ethambutol, 5 min): 32.0%; ASP+ inhibition [%] (OCT3; OCT3, 20 μM inhibitor, 2 μM ASP+, 5 min): -2.9%; (S,S)-Ethambutol inhibition [%] (OCT1; OCT1, 20 μM inhibitor, 2 μM (S,S)-ethambutol, 5 min): 74.3%; ASP+ inhibition [%] (OCT1; OCT1, 20 μM inhibitor, 2 μM ASP+, 5 min, mean of three experiments): 40.6%; Sumatriptan inhibition [%] (OCT1; OCT1, 20 μM inhibitor, 2 μM sumatriptan, 5 min): 82.8%

Compound	inhibition at 5 min, 20 μM (OCT2; [1]) [%]	inhibition at 5 min, 20 μM (OCT2; [2]) [%]	inhibition at 5 min, 20 μM (OCT2; [3]) [%]	inhibition at 20 µM (OCT3; [4]) [%]	inhibition at 20 µM (OCT3; [5]) [%]	inhibition at 20 µM (OCT3; [6]) [%]	inhibition at 5 min, 20 μM (OCT1; [7]) [%]	inhibition at 5 min, 20 μM (OCT1; [8]) [%]	inhibition at 5 min, 20 μM (OCT1; [9]) [%]	other results
CNCC[C@H](Oc1cccc2ccccc12)c1cccs1 [(S)-Duloxetine]	19.4	70.2	46.1				86.9	43.3	88.5	IC50 (OCT2; IC50): 16.6 µM; inhibition at 20 µM (OCT3; HEK293, 5 min, read-out: (S)-Zolmitriptan inhibition [%]): 19.6%; inhibition at 20 µM (OCT3; HEK293, 5 min, read-out: (S,S)-Ethambutol inhibition [%]): 25.2%; inhibition at 20 µM (OCT3; HEK293, read-out: ASP+ inhibition [%]): 2.4%
